Biological target: human GPR120 (Homo sapiens (Human), UniProt Q5NUL3)
Assay: GPR120 pERK AlphaScreen SureFire Assay (human)
Type: cell-based
Settings: CHO cells stably transfected with short form of human GPR120
Text: GPR120 activity was monitored by measuring phosphorylation of ERK (pERK), since G protein receptors are known to activate the ERK signaling cascade either directly and/or through recruitment of arrestin that serves as a scaffold for downstream signaling events.
GPR120 pERK AlphaScreen SureFire Assay
The human and mouse GPR120-mediated intracellular phosphorylated ERK assays were established using CHOA12 cells stably transfected with the short form of human or mouse GPR120 receptor. […] Cells were cryo preserved at a concentration of 2×10^7 cells/mL, in 90% Charcoal/Dextran FBS and 10% DMSO, and frozen in liquid nitrogen at a low passage number.
The flasks were placed in a tissue culture incubator overnight (37° C., 5% CO2). […] The next day, cells were serum starved in 30 μL of F-12 media without any serum or antibiotics for 2 hours at 37° C.
Cells were then stimulated with 50 nL of compound dilutions using ECHO liquid handler for 7 minutes at 37° C.
(§1) The lysis buffer was diluted 5-fold with water before use. […] The SureFire assay reagent mix was prepared by mixing 60 parts Reaction Buffer, 10 parts Activation Buffer, 1 part Donor Beads, 1 part Acceptor Beads (Perkin Elmer Cat. #TGRES10K). 3.5 μL/well of this reagent mix was manually added to the proxiplate with a multichannel pipettor. Plates were spun down at 1000 rpm for 2 minutes, followed by light-protected incubation at room temperature for 2 hours. The plates were read on the Alpha-technology compatible Envision multilabel plate reader using AlphaScreen protocol according to manufacturer's specifications. The agonist effect of compounds was expressed as 100× (average sample−average blank)/(average total−average blank) where sample is the luminescence activity in the presence of test compound, blank is equal to the luminescence activity in the presence of DMSO control and the total is signal induced by 50 μM linolenic acid as reference compound. Activation data for the test compound over a range of concentrations was plotted as percentage activation of the test compound (100%=maximum response). After correcting for background, EC50 values were determined.
The human and mouse GPR120-mediated intracellular phosphorylated ERK assays were also established using CHO-K1 cells stably transfected with the short form of human or mouse GPR120 receptor. […] Cells were cryo preserved at a concentration of 3×10^6 cells/mL, in 70% F-12, 20% Charcoal/Dextran FBS and 10% DMSO, and frozen in liquid nitrogen at a low passage number.
The flasks were placed in a tissue culture incubator overnight (37° C., 5% CO2).
Cells were then stimulated with 40 nL of compound dilutions using ECHO liquid handler for 7 minutes at 37° C.
as §1, with “compound.” for “compound. Activation data for the test compound over a range of concentrations was plotted as percentage activation of the test compound (100%=maximum response). After correcting for background, EC50 values were determined.”
Activation data for the test compound over a range of concentrations was plotted as percentage activation of the test compound (100%=maximum response). After correcting for background, EC50 values were determined.

human GPR120, sequence (Q5NUL3 whole entry): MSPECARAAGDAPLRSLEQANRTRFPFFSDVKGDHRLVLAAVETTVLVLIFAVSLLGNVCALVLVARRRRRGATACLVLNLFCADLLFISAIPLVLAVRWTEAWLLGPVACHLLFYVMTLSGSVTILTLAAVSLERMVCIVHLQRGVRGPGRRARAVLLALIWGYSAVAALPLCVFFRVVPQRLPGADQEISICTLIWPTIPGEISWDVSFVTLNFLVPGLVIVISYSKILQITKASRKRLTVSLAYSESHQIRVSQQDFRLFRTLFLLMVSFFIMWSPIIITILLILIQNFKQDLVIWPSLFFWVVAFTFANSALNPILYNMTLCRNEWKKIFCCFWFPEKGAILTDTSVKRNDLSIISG

| Structure (SMILES) | EC50 [nM] |
| --- | --- |
| CC(C)Oc1ccc(F)c(-c2ccc([C@H]3C[C@@H](CC(=O)O)C3)cc2)c1 [Example 45, 2-(Cis-3-(2′-fluoro-5′-isopropoxy-[1,1′-biphenyl]-4-yl)cyclobutyl)acetic acid] | 120 |
| O=C(O)[C@H]1C[C@@H](Oc2ccc(-c3cc(Oc4ccccc4)ccc3F)cc2)C1 [Example 65, Cis-3-((2′-fluoro-5′-phenoxy-[1,1′-biphenyl]-4-yl)oxy)cyclobutanecarboxylic acid] | 2270 |
| O=C(O)CO[C@H]1C[C@@H](c2ccc(-c3cc(Oc4cccc(F)c4)cc(F)c3F)cc2)C1 [Example 36, Cis-2-(3-(2′,3′-difluoro-5′-(3-fluorophenoxy)-[1,1′-biphenyl]-4-yl)cyclobutoxy) acetic acid] | 130 |
| O=C(O)CO[C@H]1C[C@@H](c2ccc(-c3cccc(Cc4ccccc4)c3)cc2)C1 [Example 9, Cis-2-(3-(3′-benzyl-[1,1′-biphenyl]-4-yl)cyclobutoxy)acetic acid] | 1590 |
| CC(C)Oc1ccc(F)c(-c2ccc([C@H]3C[C@@H](OCC(=O)O)C3)cc2)c1F [Example 15, Cis-2-(3-(2′,6′-difluoro-3′-isopropoxy-[1,1′-biphenyl]-4-yl)cyclobutoxy)acetic acid] | 800 |
| CC(C)Oc1ccc(F)c(-c2ccc(C=C3CC(C(=O)O)C3)cc2)c1 (stereo not shown) [Example 47, 3-((2′-Fluoro-5′-isopropoxy-[1,1′-biphenyl]-4-yl)methylene)cyclobutanecarboxylic acid] | 460 |
| COc1cc(Cl)cc(-c2ccc([C@H]3C[C@@H](OCC(=O)O)C3)cc2)c1 [Example 6, Cis-2-(3-(3′-chloro-5′-methoxy-[1,1′-biphenyl]-4-yl)cyclobutoxy)acetic acid] | 880 |
| Cc1ccc(Oc2ccc(F)c(-c3ccc([C@H]4C[C@@H](OCC(=O)O)C4)cc3)c2)nn1 [Example 29, Cis-2-(3-(2′-fluoro-5′-((6-methylpyridazin-3-yl)oxy)-[1,1′-biphenyl]-4-yl)cyclobutoxy)acetic acid] | 5000 |
| Cc1ccc(Oc2cc(F)c(F)c(-c3ccc([C@H]4C[C@@H](OCC(=O)O)C4)cc3)c2)cc1 [Example 38, Cis-2-(3-(2′,3′-difluoro-5′-(p-tolyloxy)-[1,1′-biphenyl]-4-yl)cyclobutoxy)acetic acid] | 540 |
| O=C(O)CO[C@H]1C[C@@H](c2ccc(-c3cc(OC4CCCCC4)ccc3F)cc2)C1 [Example 33, Cis-2-(3-(5′-(cyclohexyloxy)-2′-fluoro-[1,1′-biphenyl]-4-yl)cyclobutoxy)acetic acid] | 760 |
| CC(C)Oc1ccc(F)c(-c2ccc(CC3CC(CC(=O)O)C3)cc2)c1 (stereo not shown) [Example 50, 2-(3-((2′-Fluoro-5′-isopropoxy-[1,1′-biphenyl]-4-yl)methyl)cyclobutyl)acetic acid] | 650 |
| O=C(O)CCC[C@H]1C[C@@H](OCc2cccc(Oc3ccccc3)c2)C1 [Example 53, 4-(Cis-3-(3-phenoxybenzyloxy)cyclobutyl)butanoic acid] | 430 |
| O=C(O)[C@H]1C[C@@H]1COCC1CC(c2cccc(Oc3ccccc3)c2)C1 (relative stereo) [Example 63, Trans-2-(((3-(3-phenoxyphenyl)cyclobutyl)methoxy)methyl)cyclopropanecarboxylic acid] | 1260 |
| CC(C)Oc1cccc(-c2ccc([C@H]3C[C@@H](OCC(=O)O)C3)cc2)c1 [Example 7, Cis-2-(3-(3′-isopropoxy-[1,1′-biphenyl]-4-yl)cyclobutoxy) acetic acid] | 590 |
| O=C(O)C[C@H]1C[C@H](Oc2ccc(-c3cc(Oc4ccccc4)ccc3F)cc2)C1 [Example 66, Trans-2-(3-((2′-fluoro-5′-phenoxy-[1,1′-biphenyl]-4-yl)oxy)cyclobutyl)acetic acid] | 110 |
| Cc1ccc(Oc2cc(F)c(F)c(-c3ccc([C@H]4C[C@@H](OCC(=O)O)C4)cc3)c2)cc1F [Example 35, Cis-2-(3-(2′,3′-difluoro-5′-(3-fluoro-4-methylphenoxy)-[1,1′-biphenyl]-4-yl)cyclobutoxy)acetic acid] | 290 |

| Structure (SMILES) | EC50 [nM] |
| --- | --- |
| CC(C)Oc1ccc(F)c(-c2ccc([C@H]3C[C@@H](OCC(=O)O)C3)cc2)c1 [Example 2, Cis-2-(3-(2′-fluoro-5′-isopropoxy-[1,1′-biphenyl]-4-yl)cyclobutoxy)acetic acid] | 530 |
| COC1(c2cccc(Oc3ccccc3)c2)CC(CCCOCC(=O)O)C1 (stereo not shown) [Example 68, 2-(3-(3-Methoxy-3-(3-phenoxyphenyl)cyclobutyl)propoxy)acetic acid] | 2800 |
| O=C(O)COCC1CC(OCc2cccc(Oc3ccccc3)c2)C1 (stereo not shown) [Example 54, 2-((3-(3-Phenoxybenzyloxy)cyclobutyl)methoxy)acetic acid] | 3850 |
| O=C(O)COCCC[C@H]1C[C@H](c2cccc(Oc3ccccc3)c2)C1 [Example 56, 2-(3-(Trans-3-(3-phenoxyphenyl)cyclobutyl)propoxy)acetic acid] | 170 |
| COc1ccc(OC(F)(F)F)cc1-c1ccc([C@H]2C[C@@H](OCC(=O)O)C2)cc1 [Example 16, Cis-2-(3-(2′-methoxy-5′-(trifluoromethoxy)-[1,1′-biphenyl]-4-yl)cyclobutoxy)acetic acid] | 480 |
| O=C(O)[C@H]1C[C@H](Oc2ccc(-c3cc(Oc4ccccc4)ccc3F)cc2)C1 [Example 64, Trans-3-((2′-fluoro-5′-phenoxy-[1,1′-biphenyl]-4-yl)oxy)cyclobutanecarboxylic acid] | 440 |
| O=C(O)COCCC[C@H]1C[C@@H](OCc2cccc(Oc3ccccc3)c2)C1 [Example 59, 2-(3-(Cis-3-(3-phenoxybenzyloxy)cyclobutyl)propoxy)acetic acid] | 520 |
| O=C(O)CO[C@H]1C[C@@H](c2ccc(-c3cc(Oc4cccc(F)c4)ccc3F)cc2)C1 [Example 32, Cis-2-(3-(2′-fluoro-5′-(3-fluorophenoxy)-[1,1′-biphenyl]-4-yl)cyclobutoxy)acetic acid] | 230 |
| O=C(O)CO[C@H]1C[C@@H](c2ccc(-c3cc(Oc4ccncc4)ccc3F)cc2)C1 [Example 25, Cis-2-(3-(2′-fluoro-5′-(pyridin-4-yloxy)-[1,1′-biphenyl]-4-yl)cyclobutoxy)acetic acid] | 1900 |
| O=C(O)C[C@H]1C[C@@H](Oc2ccc(-c3cc(Oc4ccccc4)ccc3F)cc2)C1 [Example 67, Cis-2-(3-((2′-fluoro-5′-phenoxy-[1,1′-biphenyl]-4-yl)oxy)cyclobutyl)acetic acid] | 330 |
| C[C@]1(CCCOCC(=O)O)C[C@H](c2cccc(Oc3ccccc3)c2)C1 [Example 61, 2-(3-(Trans-1-methyl-3-(3-phenoxyphenyl)cyclobutyl)propoxy)acetic acid] | 150 |
| CC(C)Oc1ccc(F)c(-c2ccc(CC3CC(C(=O)O)C3)cc2)c1 (single isomer, unassigned) [Example 49, 3-((2′-Fluoro-5′-isopropoxy-[1,1′-biphenyl]-4-yl)methyl)cyclobutanecarboxylic acid] | 500 |
| CC(C)Oc1cccc(-c2ccc([C@H]3C[C@@H](OCC(=O)O)C3)cc2)c1F [Example 10, Cis-2-(3-(2′-fluoro-3′-isopropoxy-[1,1′-biphenyl]-4-yl)cyclobutoxy) acetic acid] | 1020 |
| O=C(O)CO[C@H]1C[C@@H](c2ccc(-c3cc(OC4CCCOC4)ccc3F)cc2)C1 (stereo partly drawn) [Example 30, Cis2-(3-(2′-fluoro-5′-((tetrahydro-2H-pyran-3-yl)oxy)-[1,1′-biphenyl]-4-yl)cyclobutoxy)acetic acid] | 1400 |
| COc1cc(OC(C)C)cc(-c2ccc([C@H]3C[C@@H](OCC(=O)O)C3)cc2)c1 [Example 19, Cis-2-(3-(3′-isopropoxy-5′-methoxy-[1,1′-biphenyl]-4-yl)cyclobutoxy)acetic acid] | 1590 |

From US10023519B2, “Cyclobutane containing carboxylic acid GPR120 modulators” (BRISTOL-MYERS SQUIBB COMPANY, priority 2014, dated 2018)
